Earlier results in patent US20040067918A1, “Combination of an aldosterone receptor antagonist and nicotinic acid or a nicotinic acid derivative” (priority 2002, published 2004).

Details: severe heart failure patients on standard therapy, relative to placebo-treated subjects

Compound: CC(=O)SC1CC2=CC(=O)CCC2(C)C2CCC3(C)C(CCC34CCC(=O)O4)C12 (stereo not drawn) [spironolactone, 17-hydroxy-7α-mercapto-3-oxo-17α-pregn-4-ene-21-carboxylic acid γ-lactone acetate]
- incidence of hospitalization: statistically significant reduction
- mortality: statistically significant reduction
